Test results published in ChEMBL document CHEMBL1201862, “PubChem BioAssay data set” (2004).
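Growth conditions: 96-well plates. Treatment: test compound, 48 hours, 5 concentrations. Analysis: linear interpolation between bracketing concentrations; unreached endpoints set to highest concentration. Here, GI50 denotes the concentration required for 50% inhibition of growth.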 The source made the active and inactive calls. No stated cut-off is given here; in the data, active = GI50 up to about 1.1 µM and inactive = higher.

Tests used:
Experiment in all cases: growth of human tumour cells (NCI), 48 h
[1] = system: SN12C
[2] = system: MCF7
[3] = system: SK-OV-3
[4] = system: COLO 205
[5] = system: HOP-62
[6] = system: MDA-N
[7] = system: SF-268
[8] = system: MDA-MB-435
[9] = system: CAKI-1
[10] = system: LOX IMVI
[11] = system: RXF 393
[12] = system: UACC-257
[13] = system: SK-MEL-28
[14] = system: OVCAR-3
[15] = system: 786-0
[16] = system: OVCAR-5
[17] = system: HCC 2998
[18] = system: SW-620
[19] = system: SF-539

Measured: GI50

CC(C)(CO)NC(=O)Nc1c(C(F)(F)F)cc(-c2ccccc2)[nH]c1=O
inactive: [1] > 100 µM | [2] > 100 µM | [3] > 100 µM | [4] > 100 µM | [5] > 100 µM | [6] > 100 µM | [7] > 100 µM | [8] > 100 µM | [9] > 100 µM | [10] > 100 µM | [11] > 100 µM | [12] > 100 µM | [13] > 100 µM | [14] 29.4 µM | [15] > 100 µM | [16] > 100 µM | [17] > 100 µM | [18] > 100 µM

CCC1=NC(N/N=C/c2ccco2)=N/C1=C\c1ccccc1O
inactive: [1] > 100 µM | [2] 17.9 µM | [3] 47 µM | [4] 44.3 µM | [5] 76.4 µM | [6] 50.4 µM | [7] 21.8 µM | [8] 29.5 µM | [9] > 100 µM | [10] 35 µM | [11] 82.4 µM | [12] 35.2 µM | [13] 38.3 µM | [15] 39.7 µM | [16] 78.7 µM | [17] 20.8 µM | [18] 63.4 µM

N#Cc1sc2c(c1OC(=O)c1cccs1)c(=O)n(-c1ccccc1)c(=S)n2-c1ccccc1
inactive: [1] 19.2 µM | [2] 21.5 µM | [3] 29.6 µM | [4] 19.9 µM | [5] 19.6 µM | [6] 26.7 µM | [7] 30.1 µM | [8] 29.9 µM | [19] 22.4 µM | [9] 32.4 µM | [10] 20.3 µM | [11] 14.9 µM | [12] 32 µM | [13] 21.9 µM | [14] 31.1 µM | [15] 31.4 µM | [18] 21.8 µM

COc1ccc(OC)c2c1-c1nnnn1CCC2(C)C
inactive: [1] > 100 µM | [2] > 100 µM | [3] > 100 µM | [4] > 100 µM | [5] > 100 µM | [6] > 100 µM | [7] > 100 µM | [8] > 100 µM | [19] > 100 µM | [10] > 100 µM | [11] > 100 µM | [12] > 100 µM | [13] > 100 µM | [14] > 100 µM | [15] > 100 µM | [16] > 100 µM | [17] > 100 µM | [18] > 100 µM

C[C@H](NC1=C(Cl)C(=O)c2c(O)ccc(O)c2C1=O)C(=O)Nc1ccc([N+](=O)[O-])cc1
inactive: [1] 1.6 µM | [2] 1.75 µM | [3] 6.89 µM | [4] 1.59 µM | [5] 2.45 µM | [6] 2.4 µM | [7] 2.16 µM | [8] 1.57 µM | [19] 2.21 µM | [9] 4.13 µM | [11] 1.56 µM | [12] 1.95 µM | [13] 2.03 µM | [14] 1.38 µM | [15] 1.6 µM | [16] 1.77 µM | [17] 3.33 µM | [18] 3.05 µM

CCOC(=O)c1cn(CC)c2cc3c(cc2c1=O)CCS3(=O)=O
inactive: [1] > 100 µM | [2] > 100 µM | [3] > 100 µM | [5] > 100 µM | [6] > 100 µM | [7] > 100 µM | [8] > 100 µM | [19] > 100 µM | [11] > 100 µM | [13] > 100 µM | [14] > 100 µM | [15] > 100 µM | [16] > 100 µM | [17] > 100 µM | [18] > 100 µM

CCCN1C(=O)CC(C)N(Cc2ccccc2Cl)C1=S (stereo not given)
inactive: [1] 30.6 µM | [2] 26.5 µM | [3] 31.9 µM | [4] 16.9 µM | [5] 35.4 µM | [6] 21.5 µM | [7] 24.4 µM | [8] 23.7 µM | [19] 16 µM | [9] 36.9 µM | [10] 22.3 µM | [11] 3.9 µM | [12] 17.2 µM | [13] 22.9 µM | [14] 26.1 µM | [15] 36.4 µM | [16] 50.2 µM | [18] 30.8 µM

COc1ccc(CC[N+]2(C)COc3cc4oc(=O)cc(C)c4cc3C2)cc1OC (stereo not given)
inactive: [1] > 100 µM | [2] > 100 µM | [3] > 100 µM | [4] > 100 µM | [5] > 100 µM | [6] > 100 µM | [7] > 100 µM | [8] > 100 µM | [9] > 100 µM | [10] > 100 µM | [11] > 100 µM | [12] > 100 µM | [13] > 100 µM | [14] > 100 µM | [15] > 100 µM | [16] > 100 µM | [17] > 100 µM | [18] > 100 µM

O=C1NC(=S)NC1C(Cc1ccccc1)c1ccco1 (stereo not given)
inactive: [1] > 100 µM | [2] 6.76 µM | [3] > 100 µM | [4] > 100 µM | [6] > 100 µM | [7] > 100 µM | [8] > 100 µM | [19] > 100 µM | [9] > 100 µM | [10] > 100 µM | [11] > 100 µM | [12] > 100 µM | [13] > 100 µM | [15] > 100 µM | [16] > 100 µM | [17] > 100 µM | [18] > 100 µM

O=C1C(Cl)=C(Cl)C(=O)C2=C1C1c3ccccc3C2c2ccccc21
inactive: [1] > 100 µM | [2] 71.4 µM | [3] 94.4 µM | [4] 24.2 µM | [5] 28.9 µM | [6] > 100 µM | [7] > 100 µM | [8] 77.4 µM | [19] 31.3 µM | [11] 30.8 µM | [12] > 100 µM | [13] 38.7 µM | [14] 36.1 µM | [15] 22.3 µM | [16] > 100 µM | [17] 63.8 µM | [18] 29.4 µM

Cc1cccc(Nc2cc(Cl)nc(SCC(=O)O)n2)c1C [PIRINIXIC ACID]
inactive: [1] > 100 µM | [2] > 100 µM | [3] > 100 µM | [4] > 100 µM | [5] > 100 µM | [6] > 100 µM | [8] > 100 µM | [19] > 100 µM | [9] > 100 µM | [10] > 100 µM | [11] > 100 µM | [12] > 100 µM | [13] > 100 µM | [14] > 100 µM | [15] > 100 µM | [16] > 100 µM | [18] > 100 µM
